According to US20250024871A1, “AMIDE COMPOUNDS AND THEIR USE AS FLAVOR MODIFIERS” (Firmenich Incorporated, priority 2021, published 2025):

Target: T1, T1R umami taste receptor (Homo sapiens, UniProt Q7RTX0+Q7RTX1)
T1 sequence (Q7RTX1 21-841): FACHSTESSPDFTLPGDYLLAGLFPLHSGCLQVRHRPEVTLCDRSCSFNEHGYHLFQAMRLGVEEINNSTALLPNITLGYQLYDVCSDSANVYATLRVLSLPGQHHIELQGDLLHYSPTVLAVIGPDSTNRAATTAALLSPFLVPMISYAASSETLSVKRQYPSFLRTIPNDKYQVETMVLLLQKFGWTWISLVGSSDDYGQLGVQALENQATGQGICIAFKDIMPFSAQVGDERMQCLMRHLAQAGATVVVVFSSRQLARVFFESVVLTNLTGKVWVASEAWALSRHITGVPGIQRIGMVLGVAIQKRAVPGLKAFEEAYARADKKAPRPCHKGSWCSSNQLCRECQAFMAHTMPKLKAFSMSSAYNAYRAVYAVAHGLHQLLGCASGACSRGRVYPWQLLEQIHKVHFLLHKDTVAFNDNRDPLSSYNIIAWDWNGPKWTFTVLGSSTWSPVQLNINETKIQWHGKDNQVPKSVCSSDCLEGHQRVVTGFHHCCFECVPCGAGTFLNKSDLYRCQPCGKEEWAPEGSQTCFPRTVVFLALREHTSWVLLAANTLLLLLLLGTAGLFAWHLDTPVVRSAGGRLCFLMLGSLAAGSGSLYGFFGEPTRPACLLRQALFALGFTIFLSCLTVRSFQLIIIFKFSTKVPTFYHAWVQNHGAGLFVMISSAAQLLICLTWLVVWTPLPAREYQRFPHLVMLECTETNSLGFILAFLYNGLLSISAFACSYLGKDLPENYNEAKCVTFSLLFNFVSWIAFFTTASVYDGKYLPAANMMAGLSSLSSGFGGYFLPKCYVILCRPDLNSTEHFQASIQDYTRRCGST
T1 sequence (Q7RTX0 21-852): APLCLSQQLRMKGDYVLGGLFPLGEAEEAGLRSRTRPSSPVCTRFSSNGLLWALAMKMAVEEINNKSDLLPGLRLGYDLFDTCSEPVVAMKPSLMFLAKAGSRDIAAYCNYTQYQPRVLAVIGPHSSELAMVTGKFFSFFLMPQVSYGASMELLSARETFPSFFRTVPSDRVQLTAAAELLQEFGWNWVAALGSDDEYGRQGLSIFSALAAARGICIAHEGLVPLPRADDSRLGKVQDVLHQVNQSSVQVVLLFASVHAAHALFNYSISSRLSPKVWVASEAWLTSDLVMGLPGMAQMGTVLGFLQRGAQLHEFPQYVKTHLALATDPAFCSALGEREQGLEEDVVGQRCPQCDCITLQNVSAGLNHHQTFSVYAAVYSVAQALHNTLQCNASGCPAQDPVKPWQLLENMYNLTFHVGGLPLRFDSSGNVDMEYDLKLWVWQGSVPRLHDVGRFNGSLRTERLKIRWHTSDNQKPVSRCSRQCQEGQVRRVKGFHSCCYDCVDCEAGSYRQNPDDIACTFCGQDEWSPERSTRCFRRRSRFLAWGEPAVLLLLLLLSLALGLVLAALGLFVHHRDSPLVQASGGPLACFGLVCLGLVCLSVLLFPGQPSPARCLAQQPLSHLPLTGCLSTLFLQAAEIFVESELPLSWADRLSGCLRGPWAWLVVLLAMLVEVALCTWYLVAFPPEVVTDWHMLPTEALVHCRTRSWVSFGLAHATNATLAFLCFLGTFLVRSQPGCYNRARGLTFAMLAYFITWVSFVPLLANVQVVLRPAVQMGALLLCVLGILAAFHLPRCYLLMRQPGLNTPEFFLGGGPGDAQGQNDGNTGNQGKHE
Assay: in vitro cell-based assay having cells that express the T1R umami taste receptor (enhancement of MSG)
Conditions: for EC50: cells expressing T1R umami taste receptor, read-out: EC50 for enhancement of MSG binding
Description: Each of Compounds 101-183 was synthesized according to one of the general procedures set forth above in Examples 1. Thereafter, the compounds were tested in an in vitro cell-based assay having cells that express the T1R umami taste receptor. Dose-binding curves were recorded and the EC50 was determined for enhancement of MSG binding. Table 2 sets forth the calculated EC50 values for certain tested compounds as well as the MSG enhancement ratio at a particular concentration.

Row | SMILES | EC50 [µM] | MSG Enh. Ratio (compound at 10 μM) | MSG Enh. Ratio (compound at 50 μM) | MSG Enh. Ratio (compound at 3 μM) | MSG Enh. Ratio (compound at 1 μM)
1 | CCC/C=C/C(=O)N[C@H](C(=O)OC)[C@@H](C)CC [Compound 174, Methyl ((E)-hex-2-enoyl)-L-isoleucinate] | 30 | 3.6 @ |  |  | 
2 | COC(=O)CC[C@H](NC(=O)/C=C/c1ccccc1)C(=O)OC [Compound 139, Dimethyl cinnamoyl-L-glutamate] |  |  | 3.82 @ |  | 
3 | CCOC(=O)[C@@H](NC(=O)c1ccc(C)c(C)c1)C(C)C [Compound 118, Ethyl (3,4-dimethylbenzoyl)-L-valinate] | 4.8 |  |  | 7.0 @ | 
4 | CCC/C=C/C(=O)N[C@@H](Cc1ccccc1)C(=O)OCC [Compound 177, Ethyl (E)-hex-2-enoyl-L-phenylalaninate] | ~40 |  | 8.8 @ |  | 
5 | CCOC(=O)[C@H](Cc1ccccc1)NC(=O)/C=C/c1ccc2c(c1)OCO2 [Compound 160, Ethyl (E)-(3-(benzo[d][1,3]dioxol-5-yl)acryloyl)-L-phenylalaninate] | > 50 |  | 3.9 @ |  | 
6 | CCOC(=O)[C@H](Cc1ccccc1)NC(=O)/C=C/c1ccc(OC)cc1 [Compound 148, Ethyl (E)-(3-(4-methoxyphenyl)acryloyl)-L-phenylalaninate] | 10.1 |  |  |  | 3.5 @
7 | COC(=O)[C@H](Cc1ccccc1)NC(=O)c1ccc(C)c(C)c1 [Compound 119, Methyl (3,4-dimethylbenzoyl)-L-phenylalaninate] | 8 |  |  | 4.6 @ | 
8 | C/C=C/C=C/C(=O)N[C@@H](CCC(=O)OCC)C(=O)OCC [Compound 182, Diethyl ((2E,4E)-hexa-2,4-dienoyl)-L-glutamate] | > 50 |  | 3.4 @ |  | 
9 | COC(=O)[C@@H](NC(=O)c1ccc(C)c(C)c1)C(C)C [Compound 117, Methyl (3,4-dimethylbenzoyl)-L-valinate] | 11.1 |  |  | 4.6 @ | 
10 | COC(=O)[C@H](Cc1ccccc1)NC(=O)c1ccc(C)cc1 [Compound 104, Methyl (4-methylbenzoyl)-L-phenylalaninate] | > 50 | 3.3 @ |  |  | 
11 | CCOC(=O)[C@@H](NC(=O)c1ccc(OC)cc1)C(C)C [Compound 106, Ethyl (4-methoxybenzoyl)-L-valinate] | 36 |  | 3.6 @ |  | 
12 | COC(=O)[C@H](Cc1ccccc1)NC(=O)c1cccc(OC)c1 [Compound 107, Methyl (3-methoxybenzoyl)-L-phenylalaninate] | > 50 |  | 3.2 @ |  | 
13 | CCOC(=O)[C@@H](CC(C)C)NC(=O)c1ccc(C)cc1 [Compound 102, Ethyl (4-methylbenzoyl)-D-leucinate] | < 2 |  |  |  | 
14 | CCC/C=C/C(=O)N[C@H](C(=O)OCC)C(C)C [Compound 175, Ethyl (E)-hex-2-enoyl-L-valinate] | > 50 |  | 4.4 @ |  | 
15 | CCC/C=C/C(=O)N[C@@H](CCC(=O)OCC)C(=O)OCC [Compound 178, Diethyl (E)-hex-2-enoyl-L-glutamate] | > 50 |  | 5.6 @ |  | 
16 | CCOC(=O)CC[C@H](NC(=O)c1ccc2c(c1)OCO2)C(=O)OCC [Compound 129, Diethyl (benzo[d][1,3]dioxole-5-carbonyl)-L-glutamate] | 12 |  |  | 7.5 @ | 
17 | CCOC(=O)[C@H](CC(C)C)NC(=O)c1ccc(C)c(C)c1 [Compound 116, Ethyl (3,4-dimethylbenzoyl)-L-leucinate] |  |  |  | 3.7 @ | 
18 | CCOC(=O)[C@@H](NC(=O)/C=C/c1ccccc1)[C@@H](C)CC [Compound 137, Ethyl cinnamoyl-L-isoleucinate] |  |  | 4.3 @ |  | 
